Assay [1] concerns Enterococcus faecalis (ATCC 29212). Briefly: microbe, parasite or virus in culture. The format is cell-based. The conditions noted are these: Enterococcus faecalis, ATCC29212; E. faecalis. As to the method: (§1) The gram-positive bacterial strains are: Enterococcus faecalis (ATCC 29212), and Staphylococcus aureus (ATCC 25923) and the gram-negative strains are: Escherichia coli (ATCC 25922), Pseudomonas aeruginosa (ATCC 27853) and Salmonella typhimurim (clinical isolate), Salmonella typhiTy2 (WHO). The bacteria are cultured with shaking all night at 37° C., then recultured at a dilution of 1:50 in some fresh Luria-Bertani (LB) medium for 2 hours. The bacterial concentration is adjusted to […], and 50 μl is distributed in 96-well plates with an equal volume of peptides diluted half and half (256-0.5 μg/ml) in LB medium. […] To determine the minimum bactericide concentration, 10 μl from each well is spread on gelose plates in LB medium.
(§2) The results are expressed as the peptide concentration in MBC (μM).

Assay [2] deals with Escherichia coli (ATCC 25922). Briefly: microbe, parasite or virus in culture. The conditions noted are these: Escherichia coli, ATCC25922; E. coli; read-out: MBC. The class given is cell-based. As to the method: as §1, §2
Assay [3] relates to Pseudomonas aeruginosa (ATCC 27853). Briefly: microbe, parasite or virus in culture. The conditions noted are these: Pseudomonas aeruginosa, ATCC27853; P. aeruginosa. The format is cell-based. As to the method: as §1, §2
In assay [4] the test system is Staphylococcus aureus (ATCC 25923). Briefly: microbe, parasite or virus in culture. The format is cell-based. The conditions noted are these: Staphylococcus aureus, ATCC25923; S. aureus. The protocol: as §1, §2
Assay [5] concerns Salmonella typhimurim (clinical isolate). Description: Antibacterial activity of cationic peptides (MBC). The format is cell-based. The conditions noted are these: S. typhimurium. As to the method:
as §1, §2

Assay [6] relates to Salmonella typhiTy2 (WHO). Briefly: microbe, parasite or virus in culture. The format is cell-based, S. typhi-Ty2. The conditions noted are these: Salmonella, TYPHI. The protocol: as §1, §2
A short description of assay [7]: ELISA fixation of biotinylated peptides on sensitized plates. The format is binding. The conditions noted are these: read-out: avidity (Kd), quantity of peptides necessary to obtain 50% fixation, Chondroitin A; Table 5.
Experiment in assay [8]: as above
The format is binding. The conditions noted are these: read-out: avidity (Kd), quantity of peptides necessary to obtain 50% fixation, Chondroitin B; Table 5.

Experiment in assay [9]: as above
The format is binding. The conditions noted are these: read-out: avidity (Kd), quantity of peptides necessary to obtain 50% fixation, Chondroitin C; Table 5.

Assay [10] relates to H1299 cells. Description: Internalization of covalent peptide-peroxidase conjugates. The class given is cell-based, human. The conditions noted are these: for Internalization of Peptide-peroxidase: H1299, 0.2 μg/ml conjugate; for Internalization of Peptide-peroxidase / quantity of peptide internalized: 2 hours. As to the method:
(§3) To evaluate more directly the penetration of the peptides, avoiding the avidin-peroxidase bias, some of the peptides in sequences SEQ ID NO: 25 to 48 were conjugated covalently with cysteine in the C-terminal position of the peptide to peroxidase. The peptides were coupled with peroxidase in the following way:
(§4) One mg of peroxidase activated with maleimide (Sigma) in 100 μl of sodium phosphate buffer, NaCl 0.15 M, EDTA 5 mM, had 1 mg of peptide added to it. After 2 hours at laboratory temperature, β-mercaptoethanol is added to a final concentration of 1.5 mM for 15 minutes. The uncoupled peptide is eliminated by centrifugation on ultrafiltration membranes (cut-off threshold=30,000 Daltons, Sartorius), followed by three washings in sodium phosphate buffer 0.1 M, pH 7.4 containing 0.15 M NaCl.
The H1299 cells are incubated for 2 hours with the conjugates at increasing concentrations of peptide-peroxidase in the culture medium, then washed with PBS. The cells are lysed and the quantity of peptide internalized is evaluated by the dosage of peroxidase in the lysate of the cells with reference to a curve established with peptide-peroxidase.
The quantity of peptide internalized (pg/10^3 cells), depending on the concentrations of conjugates in the culture medium, is shown in Table 8 below.
(§5) It appears that the higher the concentration of peptide-peroxidase conjugate in the culture medium, the more the quantity internalized increases. To compare the penetration of the conjugates by cell type, the cells from different lines were incubated with 0.2 μg/ml of peptide-peroxidase conjugate for 2 hours, and the quantity of peroxidase dosed in the lysates. Table 9 and Table 9B below give the results expressed in pg/10^3 cells. The quantity of each peptide internalized in the different lines generally varies only from single to double.

A further assay deals with 3T3. Described as above. The class given is cell-based, mouse. The conditions noted are these: 2 hours. As to the method:
as §3, §4, §5

A further assay concerns HeLa. The assay is described as above. The format is cell-based, human. The conditions noted are these: 2 hours. As to the method:
as §3, §4, §5

Assay [11] can be described thus: ELISA fixation of biotinylated peptides on sensitized plates. The format is binding. The conditions noted are these: read-out: avidity (Kd), quantity of peptides necessary to obtain 50% fixation, Heparin, Table 5. As to the method:
The capacity of peptides SEQ ID NO: 1 to 21 to attach themselves to DNA and heparin is evaluated on ELISA plates sensitized with DNA or heparin. Dilutions of biotinylated peptides are deposited on the plates and their fixation is shown using streptavidin conjugated with peroxidase. […] The avidity of each of the peptides for DNA or heparin is evaluated by the quantity (×10^−6 M) of peptides necessary to obtain 50% fixation.

For a further assay, the system named is cells. Briefly: Penetration of biotinylated peptides inside cells (microscopy, S-PO coloration). The format is cell-based. The conditions noted are these: biotinylated peptides 50 to 6 μg/ml, 1-18 hours, revealed with S-PO. As to the method:
The cells are cultivated in the presence of the different peptides carrying, on the N-terminal side, biotin in decreasing concentrations (50 to 6 μg/ml) in the culture medium for variable times (1-18 hours).
At the end of the culture, the cells are washed three times with PBS (0.15 M NaCl buffered with 0.01 M potassium phosphate buffer pH 7.4) then fixed 15 minutes in ethanol at −20° C. The penetration of the peptide is evaluated after incubation for 30 minutes with streptavidin conjugated with peroxidase (abbreviated S-PO for streptavidin-peroxidase). Then, the S-PO is eliminated, and the cells are washed. […] With the other peptides, positive colorations, but of variable intensity, were noted.

For assay [12], the system named is H1299 cells. Description: Internalization of biotinylated peptide/S-PO complexes. The format is cell-based, human. The conditions noted are these: peptide: S-PO complexes of 4:1, peptide concentration of 1 μg. As to the method:
A biotinylated/S-PO peptide or biotinylated/A-PO complex (A-PO for avidin-peroxidase) is prepared extemporaneously in two ways:
1) either in a peptide: S-PO or A-PO molar ratio of 4:1 (for example, 1.4 μg of peptide with a molecular weight of 3500 to 10 μg of S-PO; the weight of S-PO used varies depending on the peptides since their molecular weights are different).
2) or in a peptide: S-PO or A-PO molar ratio of 25:1 (for example 1.7 μg of peptide with a molecular weight of 3500 to 1 μg of S-PO).
The complexes are prepared by incubating the biotinylated peptide with S-PO or A-PO in PBS in a volume of 5 to 10 μl for 15 minutes at laboratory temperature. They are then diluted in 1 ml of complete culture medium, filtered on a 0.2 micron membrane and incubated with the cells for 4 hours. The cells are then washed three times with PBS.
To study the penetration of the complexes under a microscope, the cells are fixed as before for 15 minutes in ethanol at −20° C., they are washed with PBS, and the activity of the internalized peroxidase is shown by diaminobenzidine in the presence of H2O2. To measure the quantity of peptide/S-PO or A-PO complexes internalized, the cells are trypsinized, transferred into microtubes and counted. They are washed twice by centrifugation, then the residue is suspended in 200 μl of lysis buffer (Tris buffer, 0.1 M, pH8, 0.5% Nonidet). After 15 minutes, the peroxidase contained in the lysis buffer is dosed onto 96-well plates with ortho-dianisidine and H2O2 by comparison with a standard curve for S-PO. The reading is taken at 450 nm. The quantity contained in the different samples is expressed in picograms (pg) per 10^4 cells.
Table 7 below reports the results of evaluating the influence of SEQ ID NO: 1 on the penetration of peptides coupled to SEQ ID NO: 1 into H1299 cells, where
Concentration a: 25 peptides to one molecule of S-PO (1 μg),
Concentration b: 4 peptides to one molecule of S-PO (10 μg).

Values after ≈ are worked out from the molar mass of the structure shown. Like-named read-outs stand apart in the source and are kept apart here. Where no end group is shown, it is not given here. [ ]: non-standard residue; d: D form.

For the compound `CC1(C)S[C@@H]2[C@H](NC(=O)[C@H](N)c3ccccc3)C(=O)N2[C@H]1C(=O)O` [Ampicillin, reference compound], the MBC in assay [1] is 2.75 µM (≈ 0.961 µg/mL); in assay [2] it was 22 µM (≈ 7.69 µg/mL); in assay [3], more than 696 µM; in assay [4], less than 0.68 µM; in assay [5], 11 µM (≈ 3.84 µg/mL); in [6], 5.5 µM (≈ 1.92 µg/mL).

For AKTGKRKRSG [SEQ ID NO: 36], the Kd was found to be 287 nM in assay [7], 301 nM in assay [8] and 205 nM in assay [9]. In addition, the “Internalization of Peptide-peroxidase” value with H1299 cells [10] (Table 9) amounted to 10.6 pg/10^3 cells; in the assay with 3T3 (Table 9, 0.2 μg/ml conjugate), 20.3 pg/10^3 cells; with HeLa (Table 9, 0.2 μg/ml conjugate) it was 4.4 pg/10^3 cells.

Take GLKKNGSCKRGPR [SEQ ID NO: 33]: the Kd in [11] (listed as HBP8) came to 168 nM; in [7], 225 nM; in [8] it was 260 nM; in assay [9] it was 110 nM. For the same compound, the “Internalization of Peptide-peroxidase” value came out at 3.6 pg/10^3 cells in the assay with H1299 cells [10] (Table 9); 7.6 pg/10^3 cells in the assay on 3T3 (Table 9, 0.2 μg/ml conjugate); 2.1 pg/10^3 cells with HeLa (Table 9, 0.2 μg/ml conjugate).

As to QGKSKREKKDRVF [SEQ ID NO: 37], the Kd in [7] came out at 176 nM; in [8] it was 173 nM; in [9], 93 nM. Besides, the “Internalization of Peptide-peroxidase” value in the assay with H1299 cells [10] (Table 9) was 4.3 pg/10^3 cells; in the assay on 3T3 (Table 9, 0.2 μg/ml conjugate), 5.7 pg/10^3 cells; with HeLa (Table 9, 0.2 μg/ml conjugate), 2.5 pg/10^3 cells.

Consider “SEQ ID NO: 27: SEQ ID NO: 26 in which the amino acids are in configuration D ([dS][dE][dR][dK][dK][dR][dR][dR][dE][dS][dR][dK][dK][dR][dR][dR][dE][dS]; listed as Homo sapiens)”, for which the Internalization of Peptide-peroxidase with H1299 cells [10] (Table 9B) is given as 59.1 pg/10^3 cells; in the assay with 3T3 (Table 9B, 0.2 μg/ml conjugate) it was 63.7 pg/10^3 cells; with HeLa (Table 9B, 0.2 μg/ml conjugate), 4.1 pg/10^3 cells.

Turning to “SEQ ID NO: 31: homolog of SEQ ID NO: 30 with amino acid sequence in the reverse position (b233 says SEQ ID NO: 12) (PDRKKGLKGKKKRKKG; (1)..(16) The amino acids are in front-back position; listed as Homo sapiens)”, the Internalization of Peptide-peroxidase in the assay with H1299 cells [10] (Table 9B) was 70.6 pg/10^3 cells; with 3T3 (Table 9B, 0.2 μg/ml conjugate), 75.9 pg/10^3 cells; in the assay on HeLa (Table 9B, 0.2 μg/ml conjugate) it was 8.7 pg/10^3 cells.

For “SEQ ID NO: 32: SEQ ID NO: 30 in which the amino acids are in configuration D (G[dK][dR][dK][dK][dK]G[dK][dL]G[dK][dK][dR][dD]; listed as Homo sapiens)”, the Internalization of Peptide-peroxidase with H1299 cells [10] (Table 9B) amounted to 56.7 pg/10^3 cells; in the assay on 3T3 (Table 9B, 0.2 μg/ml conjugate), 50 pg/10^3 cells; with HeLa (Table 9B, 0.2 μg/ml conjugate), 7.7 pg/10^3 cells.

As for “VKRGLKL (listed as Homo sapiens) [SEQ ID NO: 1, Peptide reacting with heparin from human lipoprotein B]”, the intracellular cytochemical coloration entry in the assay on cells is “do not give any positive intracellular cytochemical coloration”. This compound gave a S-PO internalized in the assay on H1299 cells [12] of 3 pg/10^4 cells.

On to “VKRGLKLRHVRPRVTRMDV (listed as Homo sapiens) [SEQ ID NO: 10]”, for which, in the assay on cells, the intracellular cytochemical coloration result is recorded as “intense coloration”. Moreover, the “Internalization of Peptide-peroxidase” value with H1299 cells [10] (Table 9) turned out to be 10 pg/10^3 cells; in the assay on 3T3 (Table 9, 0.2 μg/ml conjugate), 35 pg/10^3 cells; in the assay with HeLa (Table 9, 0.2 μg/ml conjugate), 4.7 pg/10^3 cells.

Turning to YRSRKYSSWYYALKR [SEQ ID NO: 34], the Kd worked out at 45 nM in assay [11], 47 nM in assay [7], 47 nM in assay [8] and 25 nM in [9]. The “percentage of quantity of peroxidase internalized compared to quantity deposited” value was “(0.01) %” in the assay on H1299 cells [10] (0.01 μg/ml), “(1.4) %” in the assay on H1299 cells [10] (0.1 μg/ml), “(8.14) %” in the assay with H1299 cells [10] (0.5 μg/ml) and “(10.9) %” in the assay on H1299 cells [10] (1 μg/ml). For the same compound, the “Internalization of Peptide-peroxidase” value in the assay on H1299 cells [10] (Table 9) came out at 3.8 pg/10^3 cells; with 3T3 (Table 9, 0.2 μg/ml conjugate) it was 9 pg/10^3 cells; with HeLa (Table 9, 0.2 μg/ml conjugate), 3.4 pg/10^3 cells. The “quantity of peptide internalized” value in the assay with H1299 cells [10] (peptide-peroxidase 0.01 μg/ml) is listed as 0.002 pg/10^3 cells; in the assay with H1299 cells [10] (peptide-peroxidase 0.1 μg/ml), 1.4 pg/10^3 cells; with H1299 cells [10] (peptide-peroxidase 0.5 μg/ml) it was 40.7 pg/10^3 cells; in the assay on H1299 cells [10] (peptide-peroxidase 1 μg/ml), 109 pg/10^3 cells.
